Laboratory results as given in ChEMBL document CHEMBL1201862, “PubChem BioAssay data set” (2004).
The source made the active and inactive calls.

Columns and labels:
[1] = biological target: Lysosomal acid glucosylceramidase (Homo sapiens, UniProt P04062); assay: Dose response cell-based high throughput screening assay to identify enhancers of beta-glucosidase activity. [Related pubchem assays: 784 ]; type: functional
[2] = Luminescence Cell-Based Dose Response HTS to Identify Inhibitors of 5'UTR Stem-Loop Driven Prion Protein mRNA Translation in H4 Neuroglioblastoma Cells. [Related pubchem assays: 1827 (Project Summary), 1813 (Primary HTS)]; type: functional
cells = type: functional, cell-based
[3] = alpha-synuclein stem-loop translation blockers – luminescence, H4 neuroglioblastoma cells, dose confirmation, confirmation (AID 2454); type: functional, cell-based;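 also: H4 neuroglioblastoma cells carrying an alpha-synuclein 5'UTR luciferase reporter; potency for inhibition of the luciferase signal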
[4] = luciferase reporter signal reduction – luminescence, H4-C neuroglioblastoma cells, dose response (AID 2458); type: functional, cell-based;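 also: H4 neuroglioblastoma cells stably carrying a luciferase reporter gene fusion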
[5] = luciferase reporter signal suppression in cells – H4 neuroglioma cells, luminescence, dose response (AID 1990); type: functional, cell-based
[6] = alpha-synuclein stem-loop luciferase translation blockers – H4 neuroglioma cells, luminescence, confirmation (AID 1988); type: functional, cell-based
[7] = HEK-293T viability loss after treatment – luminescence, T-cell screen hits, cytotoxicity control for TCR NF-kB inhibitor project, dose response (AID 489026); type: functional, cell-based;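 also: cells exposed to compound about 14 hours before the viability readout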
Cytochrome P450 2C9 = Cytochrome P450 2C9 (Homo sapiens, UniProt P11712); settings: Potency
Procathepsin L = Procathepsin L (Homo sapiens, UniProt P07711)
Aspartyl aminopeptidase = biological target: T1, Aspartyl aminopeptidase (Plasmodium falciparum 3D7, UniProt Q8I2J3)
T1 sequence (Q8I2J3 whole entry): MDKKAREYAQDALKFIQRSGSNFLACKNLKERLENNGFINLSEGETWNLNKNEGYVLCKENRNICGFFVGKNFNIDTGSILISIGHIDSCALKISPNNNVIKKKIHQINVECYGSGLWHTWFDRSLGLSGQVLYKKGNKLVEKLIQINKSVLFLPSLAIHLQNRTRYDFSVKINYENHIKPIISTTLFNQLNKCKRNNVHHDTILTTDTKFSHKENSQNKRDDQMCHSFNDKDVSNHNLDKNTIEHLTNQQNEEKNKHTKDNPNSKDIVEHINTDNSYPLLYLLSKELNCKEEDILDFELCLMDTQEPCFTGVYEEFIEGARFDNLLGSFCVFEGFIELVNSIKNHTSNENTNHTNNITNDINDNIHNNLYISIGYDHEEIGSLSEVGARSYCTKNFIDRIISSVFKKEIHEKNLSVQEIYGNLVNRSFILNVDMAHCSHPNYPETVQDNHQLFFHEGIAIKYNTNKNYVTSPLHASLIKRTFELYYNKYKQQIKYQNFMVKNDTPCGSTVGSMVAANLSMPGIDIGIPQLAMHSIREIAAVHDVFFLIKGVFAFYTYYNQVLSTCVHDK

Insulin-degrading enzyme = biological target: T2, Insulin-degrading enzyme (Homo sapiens, UniProt P14735); assay: Dose Response: Fluorescence polarization-based cell-based high throughput dose response assay for inhibitors of insulin-degrading enzyme (IDE). [Related pubchem assays: 434962 (Primary screen (IDE inhibitors in singlicate)), 449730 (Counterscreen (Cytotoxicity in triplicate)), 435028 (Confirmation (IDE inhibitors in triplicate)), 434984 (Summary …; type: functional
T2 sequence (P14735 whole entry): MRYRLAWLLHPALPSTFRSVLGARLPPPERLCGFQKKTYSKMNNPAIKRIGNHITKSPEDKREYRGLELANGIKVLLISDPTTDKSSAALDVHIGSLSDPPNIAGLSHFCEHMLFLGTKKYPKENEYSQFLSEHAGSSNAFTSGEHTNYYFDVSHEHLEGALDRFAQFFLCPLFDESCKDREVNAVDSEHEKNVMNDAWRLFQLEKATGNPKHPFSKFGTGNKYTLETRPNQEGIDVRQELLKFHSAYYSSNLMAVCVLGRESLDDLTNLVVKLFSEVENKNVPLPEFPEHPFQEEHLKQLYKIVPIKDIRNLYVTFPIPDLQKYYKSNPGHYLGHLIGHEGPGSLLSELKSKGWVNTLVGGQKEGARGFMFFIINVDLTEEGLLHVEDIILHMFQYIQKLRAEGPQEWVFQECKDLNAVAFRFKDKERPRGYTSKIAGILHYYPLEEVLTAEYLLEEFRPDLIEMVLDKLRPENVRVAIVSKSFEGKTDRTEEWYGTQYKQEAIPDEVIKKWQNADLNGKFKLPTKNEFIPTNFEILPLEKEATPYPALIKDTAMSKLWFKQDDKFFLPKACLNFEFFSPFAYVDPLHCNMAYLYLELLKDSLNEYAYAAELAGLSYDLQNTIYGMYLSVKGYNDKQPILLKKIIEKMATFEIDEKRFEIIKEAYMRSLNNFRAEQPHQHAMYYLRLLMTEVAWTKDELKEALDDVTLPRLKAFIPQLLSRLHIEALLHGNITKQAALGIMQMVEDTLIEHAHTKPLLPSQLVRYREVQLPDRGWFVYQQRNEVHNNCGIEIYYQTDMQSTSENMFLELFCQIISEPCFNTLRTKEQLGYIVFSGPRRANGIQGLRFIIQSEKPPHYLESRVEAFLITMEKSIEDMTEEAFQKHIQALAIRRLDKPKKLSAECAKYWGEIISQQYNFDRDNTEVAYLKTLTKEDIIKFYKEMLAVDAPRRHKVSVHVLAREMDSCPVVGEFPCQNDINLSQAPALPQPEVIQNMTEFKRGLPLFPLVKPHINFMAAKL

[8] = biological target: T3, Calpain-2 catalytic subunit (Sus scrofa, UniProt P43367); assay: m-calpain protease blockers, concentration series – biochemical, fluorogenic peptide substrate, dose response (AID 1420); type: functional
T3 sequence (P43367 whole entry): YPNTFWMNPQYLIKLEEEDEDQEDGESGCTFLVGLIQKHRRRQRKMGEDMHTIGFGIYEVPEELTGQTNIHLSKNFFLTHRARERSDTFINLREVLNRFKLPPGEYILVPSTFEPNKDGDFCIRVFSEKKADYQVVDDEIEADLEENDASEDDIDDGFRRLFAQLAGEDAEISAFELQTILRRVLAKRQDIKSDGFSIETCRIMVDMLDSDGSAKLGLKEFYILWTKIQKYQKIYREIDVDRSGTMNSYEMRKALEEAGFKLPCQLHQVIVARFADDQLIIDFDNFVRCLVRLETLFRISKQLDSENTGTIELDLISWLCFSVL

[9] = biological target: T4, Histone-lysine N-methyltransferase NSD2 (Homo sapiens, UniProt O96028); type: biochemical
T4 sequence (O96028 whole entry): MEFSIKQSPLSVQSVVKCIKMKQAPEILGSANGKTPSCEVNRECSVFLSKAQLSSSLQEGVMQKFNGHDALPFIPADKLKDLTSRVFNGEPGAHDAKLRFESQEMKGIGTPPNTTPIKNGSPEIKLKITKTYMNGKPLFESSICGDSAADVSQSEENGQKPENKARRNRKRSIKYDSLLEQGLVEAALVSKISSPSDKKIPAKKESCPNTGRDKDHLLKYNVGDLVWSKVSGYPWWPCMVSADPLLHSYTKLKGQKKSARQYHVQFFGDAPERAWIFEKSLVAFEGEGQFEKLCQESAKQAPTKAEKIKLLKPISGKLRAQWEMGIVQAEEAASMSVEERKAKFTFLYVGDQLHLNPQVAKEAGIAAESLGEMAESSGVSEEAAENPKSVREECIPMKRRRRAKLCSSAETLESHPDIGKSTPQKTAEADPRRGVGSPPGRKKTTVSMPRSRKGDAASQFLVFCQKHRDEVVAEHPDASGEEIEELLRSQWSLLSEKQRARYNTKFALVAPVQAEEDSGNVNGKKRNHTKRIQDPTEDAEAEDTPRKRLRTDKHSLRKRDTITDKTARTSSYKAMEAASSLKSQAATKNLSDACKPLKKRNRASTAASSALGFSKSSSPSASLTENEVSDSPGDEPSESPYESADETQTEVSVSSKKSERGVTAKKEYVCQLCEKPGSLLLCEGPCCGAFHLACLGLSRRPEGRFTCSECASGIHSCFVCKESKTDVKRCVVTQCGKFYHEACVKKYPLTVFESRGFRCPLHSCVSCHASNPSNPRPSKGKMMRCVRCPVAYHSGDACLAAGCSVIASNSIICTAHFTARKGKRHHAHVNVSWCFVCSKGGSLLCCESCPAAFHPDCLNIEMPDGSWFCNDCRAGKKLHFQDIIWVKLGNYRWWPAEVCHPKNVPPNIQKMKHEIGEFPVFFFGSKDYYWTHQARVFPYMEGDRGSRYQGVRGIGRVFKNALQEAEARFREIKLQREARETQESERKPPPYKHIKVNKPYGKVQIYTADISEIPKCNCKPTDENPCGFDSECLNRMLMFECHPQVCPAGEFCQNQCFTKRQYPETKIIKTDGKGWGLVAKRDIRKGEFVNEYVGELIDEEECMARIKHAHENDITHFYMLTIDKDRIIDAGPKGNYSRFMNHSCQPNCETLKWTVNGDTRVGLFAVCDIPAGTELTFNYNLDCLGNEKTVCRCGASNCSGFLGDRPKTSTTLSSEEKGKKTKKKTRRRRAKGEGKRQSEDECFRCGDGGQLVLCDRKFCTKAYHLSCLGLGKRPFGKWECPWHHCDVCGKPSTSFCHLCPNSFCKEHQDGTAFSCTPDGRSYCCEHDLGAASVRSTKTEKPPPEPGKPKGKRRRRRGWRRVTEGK

[10] = Counterscreen for IDE inhibitors: Luminescence-based cell-based high throughput dose response assay to identify compounds that are cytotoxic to HEK cells. [Related pubchem assays: 434962 (Primary screen (IDE inhibitors in singlicate)), 449730 (Counterscreen (Cytotoxicity in triplicate)), 435028 (Confirmation (IDE inhibitors in triplicate)) …; type: functional; settings: HEK293
Large T antigen = Large T antigen (Simian virus 40, UniProt P03070); type: functional, Betapolyomavirus macacae;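 also: Confirmatory-stage PubChem screen for compounds that inhibit SV40 T antigen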
[11] = biological target: T5, Eukaryotic translation initiation factor 2-alpha kinase 3 (Homo sapiens, UniProt Q9NZJ5); assay: Counterscreen assay for PERK inhibitors: Dose response cell-based high throughput screening assay to measure inhibition of PERK at 6 hours. [Related pubchem assays: 1522, 1416 ]; type: functional
T5 sequence (Q9NZJ5 whole entry): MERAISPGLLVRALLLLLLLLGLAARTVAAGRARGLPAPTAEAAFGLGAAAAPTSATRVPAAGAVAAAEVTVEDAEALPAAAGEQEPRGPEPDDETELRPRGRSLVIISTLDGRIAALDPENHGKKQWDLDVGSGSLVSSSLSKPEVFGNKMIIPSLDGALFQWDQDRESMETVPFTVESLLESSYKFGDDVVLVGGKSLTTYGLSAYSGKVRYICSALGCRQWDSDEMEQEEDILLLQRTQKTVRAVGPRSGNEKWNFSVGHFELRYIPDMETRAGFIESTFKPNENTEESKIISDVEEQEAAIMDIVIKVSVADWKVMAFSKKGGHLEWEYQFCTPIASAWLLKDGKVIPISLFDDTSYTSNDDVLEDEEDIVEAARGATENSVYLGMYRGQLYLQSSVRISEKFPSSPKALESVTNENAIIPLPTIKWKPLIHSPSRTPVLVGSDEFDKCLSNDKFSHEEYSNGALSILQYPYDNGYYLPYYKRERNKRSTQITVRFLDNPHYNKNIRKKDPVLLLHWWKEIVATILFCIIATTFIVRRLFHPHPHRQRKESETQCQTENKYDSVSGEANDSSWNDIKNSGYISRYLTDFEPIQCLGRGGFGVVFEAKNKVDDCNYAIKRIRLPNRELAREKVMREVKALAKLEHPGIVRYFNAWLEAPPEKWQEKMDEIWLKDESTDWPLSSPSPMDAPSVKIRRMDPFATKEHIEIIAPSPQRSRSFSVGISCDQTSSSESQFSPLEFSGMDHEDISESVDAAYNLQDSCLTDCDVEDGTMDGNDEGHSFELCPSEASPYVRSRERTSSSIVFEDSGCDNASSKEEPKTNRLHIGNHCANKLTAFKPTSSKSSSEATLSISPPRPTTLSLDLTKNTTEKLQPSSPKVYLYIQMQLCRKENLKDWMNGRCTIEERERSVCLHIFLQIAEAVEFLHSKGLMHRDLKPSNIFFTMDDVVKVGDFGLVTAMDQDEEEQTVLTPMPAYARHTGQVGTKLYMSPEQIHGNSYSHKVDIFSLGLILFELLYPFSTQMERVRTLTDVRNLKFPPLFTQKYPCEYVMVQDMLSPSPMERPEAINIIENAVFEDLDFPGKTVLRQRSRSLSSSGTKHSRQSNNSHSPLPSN

[12] = biological target: T5, Eukaryotic translation initiation factor 2-alpha kinase 3; assay: Dose response cell-based high-throughput screening assay to measure PERK inhibition. [Related pubchem assays: 1416 ]; type: functional

Chain of Cytochrome P450 2C9 (P11712 whole entry): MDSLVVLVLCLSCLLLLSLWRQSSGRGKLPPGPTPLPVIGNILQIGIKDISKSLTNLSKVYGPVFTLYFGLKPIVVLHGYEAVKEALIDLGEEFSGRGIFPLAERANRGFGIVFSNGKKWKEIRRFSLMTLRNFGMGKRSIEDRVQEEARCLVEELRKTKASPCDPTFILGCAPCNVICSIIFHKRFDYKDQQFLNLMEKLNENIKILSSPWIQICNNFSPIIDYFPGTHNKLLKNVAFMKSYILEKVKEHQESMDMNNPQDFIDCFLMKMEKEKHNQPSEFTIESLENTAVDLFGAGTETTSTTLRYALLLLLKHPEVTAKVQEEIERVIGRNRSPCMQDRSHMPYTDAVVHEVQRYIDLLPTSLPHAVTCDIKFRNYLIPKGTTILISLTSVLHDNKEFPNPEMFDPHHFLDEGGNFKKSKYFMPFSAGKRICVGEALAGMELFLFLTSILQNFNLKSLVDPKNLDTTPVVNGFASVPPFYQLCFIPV
Chain of Procathepsin L (P07711 whole entry): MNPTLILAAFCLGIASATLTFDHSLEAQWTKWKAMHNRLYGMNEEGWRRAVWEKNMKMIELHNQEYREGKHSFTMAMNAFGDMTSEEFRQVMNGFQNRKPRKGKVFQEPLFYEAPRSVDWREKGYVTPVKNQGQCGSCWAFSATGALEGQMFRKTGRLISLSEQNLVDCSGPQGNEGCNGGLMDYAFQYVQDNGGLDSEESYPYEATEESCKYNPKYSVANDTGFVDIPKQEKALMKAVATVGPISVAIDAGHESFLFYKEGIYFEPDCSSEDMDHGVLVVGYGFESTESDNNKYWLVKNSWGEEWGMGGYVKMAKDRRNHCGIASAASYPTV
Chain of Lysosomal acid glucosylceramidase (P04062 whole entry): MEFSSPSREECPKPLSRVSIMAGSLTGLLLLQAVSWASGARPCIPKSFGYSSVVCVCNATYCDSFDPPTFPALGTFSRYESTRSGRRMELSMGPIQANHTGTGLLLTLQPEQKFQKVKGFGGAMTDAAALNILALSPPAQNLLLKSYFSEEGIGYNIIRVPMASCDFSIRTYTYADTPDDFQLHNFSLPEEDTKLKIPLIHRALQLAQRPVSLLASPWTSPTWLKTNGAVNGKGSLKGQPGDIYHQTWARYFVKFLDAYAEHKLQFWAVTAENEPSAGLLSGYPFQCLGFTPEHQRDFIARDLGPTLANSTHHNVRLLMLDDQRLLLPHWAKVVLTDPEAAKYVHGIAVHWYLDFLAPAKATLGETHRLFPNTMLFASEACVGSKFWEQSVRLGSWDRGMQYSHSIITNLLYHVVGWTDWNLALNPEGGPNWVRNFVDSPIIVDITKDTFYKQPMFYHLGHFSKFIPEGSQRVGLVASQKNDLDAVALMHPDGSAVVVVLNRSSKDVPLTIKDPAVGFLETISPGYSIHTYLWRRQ
Chain of Large T antigen (P03070 whole entry): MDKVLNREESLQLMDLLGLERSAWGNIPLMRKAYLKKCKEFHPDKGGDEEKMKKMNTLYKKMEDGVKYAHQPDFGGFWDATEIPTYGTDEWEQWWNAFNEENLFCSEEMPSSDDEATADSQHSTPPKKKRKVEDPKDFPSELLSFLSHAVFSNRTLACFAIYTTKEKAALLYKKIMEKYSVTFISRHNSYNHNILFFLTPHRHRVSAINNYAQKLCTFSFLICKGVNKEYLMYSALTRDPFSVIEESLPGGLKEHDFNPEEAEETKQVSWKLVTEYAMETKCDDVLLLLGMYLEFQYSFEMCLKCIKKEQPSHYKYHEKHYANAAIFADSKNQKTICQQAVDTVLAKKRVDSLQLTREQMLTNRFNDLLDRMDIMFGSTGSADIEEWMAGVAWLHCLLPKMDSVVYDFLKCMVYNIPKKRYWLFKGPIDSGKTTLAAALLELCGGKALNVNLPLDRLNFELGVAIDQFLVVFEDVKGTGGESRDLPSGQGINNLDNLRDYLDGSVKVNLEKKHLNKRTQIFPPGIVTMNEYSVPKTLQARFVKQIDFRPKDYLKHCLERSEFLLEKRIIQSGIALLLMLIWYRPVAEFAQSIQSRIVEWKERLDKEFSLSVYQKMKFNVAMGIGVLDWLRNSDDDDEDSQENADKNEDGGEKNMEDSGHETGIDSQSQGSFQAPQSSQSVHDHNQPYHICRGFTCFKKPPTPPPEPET

## CCOC(=O)N1CCN(C(=O)c2ccc3c(=O)n(Cc4ccccc4)c(=S)[nH]c3c2)CC1
[1]
  EC50: > 10 µM (not active)

## Cc1cccn2c(=O)c3cc(C(=O)NCCCn4ccnc4)n(C)c3nc12
[1]
  EC50: > 10 µM (not active)

## CC1=C([N+](=O)[O-])C(c2ccccc2)C2=C(O)c3ccccc3C2=N1 (configuration not stated)
[2]
  EC50: 4.95 µM (active)
cells
  EC50: > 12 µM (not active)
[3]
  EC50: 4.09 µM (active)
[4]
  EC50: > 12 µM (not active)
[5]
  EC50: 7.36 µM (active)
[6]
  EC50: < 0.1 µM (active)
[7]
  IC50: 58.8 µM (inactive)

## CC(C)C[C@@H](CC(=O)N[C@@H](CCCN)CC(=O)N[C@@H]1CCNC[C@H]1C(=O)N[C@H](CC(=O)N[C@@H](CCC(=O)O)CC(=O)O)Cc1c[nH]c2ccccc12)NC(=O)[C@@H]1CCCC[C@H]1N
Cytochrome P450 2C9
  AC50: 31.6 µM (inconclusive)

## O=C1/C(=C/Nn2cnnc2)c2ccccc2C(=O)N1c1ccccc1
Procathepsin L
  IC50: > 59.6 µM (not active)
Aspartyl aminopeptidase
  IC50: 1.86 µM (active)

## C=C(C)C(O)/C=C/c1ccc(C)cc1 (configuration not stated)
Cytochrome P450 2C9
  AC50: 3.16 µM (inconclusive)

## CN1CCC/C1=C/C=C1\SC(=S)NC1=O
Insulin-degrading enzyme
  IC50: 8.16 µM (active)
[8]
  IC50: 13.4 µM (not active)
[9]
  AC50: > 20 µM (inactive)
[10]
  IC50: > 55.6 µM (not active)
Large T antigen
  IC50: 30.2 µM (active)

## Cc1ccc2cc(/C=N/Nc3nc4ccccc4[nH]3)c(Cl)nc2c1
[11]
  EC50: > 55.7 µM (not active)
[12]
  EC50: > 55.7 µM (not active)

## COC(=O)CN(n1cnnc1)S(=O)(=O)c1ccccc1Cl
Procathepsin L
  IC50: > 59.6 µM (not active)
Aspartyl aminopeptidase
  IC50: 0.381 µM (active)
